# Patent publication US10485844B2, “Methods for treating severe atopic dermatitis by administering an IL-4R inhibitor” (Regeneron Pharmaceuticals, Inc., priority 2016, dated 2019)
# Like-named read-outs stand apart in the source and are kept apart here. Marks after values point to notes of the source that are not given here.
# Columns and labels:
# [1] = system: adult patients with severe AD; assay: 16-week randomized placebo-controlled trial of dupilumab + TCS in adults with severe AD not adequately controlled with or intolerant to cyclosporine A (efficacy and safety); conditions: for % change from baseline in SCORAD / % change in baseline in weekly average of peak daily pruritus NRS / % patients with EASI-75 / % patients with IGA 0 or 1 and reduction from baseline of ≥2 points / Change from baseline in % BSA / Change from baseline in DLQI / Change from baseline in HADS / Change from baseline in POEM / % patients with EASI-75 for patients with prior CSA use / % patients with reduction of weekly average peak daily pruritus NRS ≥4 from baseline: week 16; for % patients with EASI-75 for patients with prior CSA use: N = 69; for % patients with reduction of weekly average peak daily pruritus NRS ≥4 from baseline: N = 94;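 as to all read-outs here: subcutaneous dosing after a 600 mg loading dose on day 1, with standardized medium-potency TCS background from day −14, compared against matching injectable placebo arm, 1:1:1 randomization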
# Description: The study comprises a 2-week screening period, a 2-week medium-potency TCS standardization period, a 16-week treatment period, and a 12-week safety follow up period. […] All patients receive concomitant medium-potency TCS as background concomitant therapy to reflect standard of care treatment of this severe population.
# Starting on day −14, all patients initiate a standardized TCS treatment regimen, and continue the standardized medium-potency regimen through the end of the treatment period (week 16). During the 12-week follow-up period, they may continue to receive TCS at the discretion of the investigator, for intolerable AD disease activity.
# Patients who continue to meet eligibility criteria at baseline (day 1) undergo assessments and are randomized in a 1:1:1 ratio to receive either once-weekly (qw) or every 2 week (q2w) subcutaneous (SC) injections of 300 mg dupilumab (following an SC loading dose of 600 mg on day 1), or matching injectable placebo, including the placebo for the loading dose. During weeks in which dupilumab is not administered (in the q2w regimen), patients receive injectable placebo.
# Patients receive either qw SC injections of 300 mg dupilumab (following a loading dose of 600 mg on day 1), or q2w SC injections of 300 mg dupilumab (following a loading dose of 600 mg on day 1) during the 16-week treatment period. During weeks in which dupilumab is not administered (in the q2w regimen), patients receive injectable placebo.
# The primary endpoint in the study is: the proportion of patients with Eczema Area and Severity Index (EASI) 75 (≥75% improvement from baseline) at week 16.
# ⋅ Proportion of patients with EASI 75 (75% improvement from baseline) at week 16 for patients with prior CSA use; ⋅ Proportion of patients with IGA 0 or 1 (on a 5-point scale) and a reduction from baseline of points at week 16; ⋅ Percent change from baseline to week 16 in the pruritus numerical rating scale (NRS); ⋅ Proportion of patients with improvement (reduction) of pruritus NRS at week 16; ⋅ Percent change from baseline to week 16 in the EASI score; ⋅ Change from baseline to week 16 in percent body surface area (BSA); ⋅ Percent change from baseline to week 16 in the SCORing Atopic Dermatitis (SCORAD); ⋅ Proportion of patients with SCORAD 50 (≥50% improvement from baseline) at week 16; ⋅ Percent change from baseline to week 16 in the Global Individual Signs Score (GISS) (erythema, infiltration/papulation, excoriations, lichenification); ⋅ Change from baseline to week 16 in the Dermatology Life Quality Index (DLQI); ⋅ Change from baseline to week 16 in the Patient Oriented Eczema Measure (POEM); ⋅ Change from baseline to week 16 in the Hospital Anxiety and Depression Scale (HADS); ⋅ Percent change from baseline to week 2 in the pruritus NRS; ⋅ Mean weekly dose of TCS through week 16
# A variety of parameters are collected during the study to assess efficacy/effectiveness of dupilumab including measures of AD severity, use of concomitant treatment for AD, and patient reported measures of AD symptoms and QOL. Efficacy is assessed using pruritus NRS, pruritus categorical scale, POEM, HADS, DLQI, the European Quality of Life-5 Dimensions (EQ-5D), Patient Global Assessment of Disease, Patient Global Assessment of Treatment, Asthma Control Questionnaire (ACQ-5), the Sino-Nasal Outcome Test (SNOT-22), assessment of sick leave/missed school days, IGA, EASI, BSA of involvement of AD, GISS and SCORAD.
# [2] = system: adults with moderate-to-severe atopic dermatitis; assay: Phase 3 open-label trial: dupilumab-naïve vs retreated patients (treatment interruption); conditions: for adverse events/100 patient years: to Wk52; for decrease in peak pruritus NRS score from baseline of parent study / patients who achieved EASI-75 (from baseline of parent study) / patients with Investigator's Global Assessment score of 0 or 1: Wk52
# Method: This Example presents an interim analysis of an ongoing multicenter, open-label trial (NCT01949311) of dupilumab treatment for up to 3 yrs. Adults with moderate-to-severe atopic dermatitis (AD) were enrolled after participation in prior dupilumab trials. Safety and efficacy at Week [Wk] 52 for dupilumab naïve (previously unexposed) and retreated (>13 Wk gap between parent and open-label study) patients were evaluated.
# [3] = Functional dupilumab concentrations in serum, 52-week trial with TCS; type: in vivo, human; conditions: Week 16
# Method: The clinical trial was a 52-week randomized, multicenter, double-blind, placebo-controlled trial of subcutaneous dupilumab with concomitant topical corticosteroids (TCS) in 740 adult patients (NCT02260986) randomized 3:1:3 to placebo, dupilumab 300 mg every 2 weeks (q2w) and dupilumab 300 mg every week (qw); patients randomized to dupilumab received a loading dose of 600 mg. An open-label extension study of dupilumab 300 mg qw (NCT01949311) is ongoing in patients who participated in prior studies and results from 1076 patients treated for up to 68 weeks are also reported. This Example describes functional dupilumab concentrations measured in serum from blood samples at various time-points and analyzed using descriptive statistics.
# [4] = system: adults with moderate-to-severe AD; conditions: for decrease in mean EASI (SD) score: 600 mg on Day 8, then 300 mg weekly
# Method: Subcutaneous dupilumab was administered as a 600 mg loading dose on Day 8, followed by a weekly dose of 300 mg from Day 15 to Day 50. PK parameters included Geometric Mean Ratios (GMR) of AUClast (area under the plasma concentration-time curve from time zero to the time of the last quantifiable concentration) and Cmax (maximum observed plasma concentration) measured at Day 1 and Day 36, while efficacy assessments included changes in Eczema Area and Severity Index (EASI) scores (scale 0-72).
# [5] = Functional dupilumab concentrations in serum, two 16-week phase 3 monotherapy studies; type: in vivo, human; conditions: for mean functional concentration of dupilumab in serum: monotherapy
# Method: The studies were multicenter, randomized, double-blind, placebo-controlled studies of subcutaneously administered dupilumab in 1379 adult patients; each had duration of 16 weeks (NCT02277743 and NCT02277769). Patients were randomized 1:1:1 to placebo, dupilumab 300 mg every week (qw), and dupilumab 300 mg every 2 weeks (q2w); patients randomized to dupilumab received a loading dose of 600 mg. Presented here are functional dupilumab concentrations measured in serum from blood samples at various pharmacokinetic time-points and analyzed using descriptive statistics.
# [6] = 300 mg dupilumab q2w + TCS (N = 107), 16-week treatment period
# [7] = 300 mg dupilumab q2w + TCS, Week 16
# [8] = expected at the end of the study period
substance,measurement,setting,value
"dupilumab: fully human anti-IL-4R antibody; heavy chain SEQ ID NO: 9, light chain SEQ ID NO: 10","DLQI score, mean change from baseline to Week 16 (±SE)",[1]; 300 mg dupilumab q2w + TCS,−9.7 (0.64)***^
same,DLQI score: Proportion of Patients with ≥4-point improvement at Week 16,[1]; 300 mg dupilumab q2w + TCS,85 (79.4)*** %
same,"POEM score, mean change from baseline to Week 16 (±SE)",[1]; 300 mg dupilumab q2w + TCS,−11.7 (0.68)***
same,POEM score: Proportion of patients with ≥4-point improvement at Week 16,[1]; 300 mg dupilumab q2w + TCS,89 (83.2)*** %
same,Proportion of patients with DLQI 0 or 1 at Week 16,[1]; 300 mg dupilumab q2w + TCS,32 (29.9)** %
same,"Atopic dermatitis (AE), n (%)",[1]; [6],(7.5) %
same,"Conjunctivitis allergic, n (%)",[1]; [6],(15.0) %
same,"Conjunctivitis, n (%)",[1]; [6],(11.2) %
same,"Headache, n (%)",[1]; [6],(9.3) %
same,"Nasopharyngitis, n (%)",[1]; [6],(20.6) %
same,"Number of patients with TEAEs, n (%)",[1]; [6],(72.0) %
same,"Rhinitis allergic, n (%)",[1]; [6],(6.5) %
same,"DLQI: Proportion of patients reporting “no impact” or “little impact”: Affected social, leisure activity",[1]; [7],(91.6)*** %
same,DLQI: Proportion of patients reporting “no impact” or “little impact”: Caused any sexual difficulties,[1]; [7],(93.5)*** %
same,"DLQI: Proportion of patients reporting “no impact” or “little impact”: How embarrassed, self-conscious",[1]; [7],(86.9)*** %
same,"DLQI: Proportion of patients reporting “no impact” or “little impact”: How itchy, sore, painful, stinging",[1]; [7],(83.2)*** %
same,DLQI: Proportion of patients reporting “no impact” or “little impact”: How much a problem is treatment,[1]; [7],(89.7)*** %
same,DLQI: Proportion of patients reporting “no impact” or “little impact”: Influenced clothes you wear,[1]; [7],(84.1)*** %
same,"DLQI: Proportion of patients reporting “no impact” or “little impact”: Interfered shopping, home, yard",[1]; [7],(93.5)*** %
same,DLQI: Proportion of patients reporting “no impact” or “little impact”: Made it difficult to do any sports,[1]; [7],(90.7)*** %
same,DLQI: Proportion of patients reporting “no impact” or “little impact”: Prevented/problem at working or studying,[1]; [7],(91.6)*** %
same,"DLQI: Proportion of patients reporting “no impact” or “little impact”: Problem partner, friends, relative",[1]; [7],(95.3)*** %
same,POEM: Proportion of patients reporting ‘no days’ or ‘1-2 days’: Last week days been weeping/oozing,[1]; [7],(87.9)*** %
same,POEM: Proportion of patients reporting ‘no days’ or ‘1-2 days’: Last week days skin been bleeding,[1]; [7],(84.1)*** %
same,POEM: Proportion of patients reporting ‘no days’ or ‘1-2 days’: Last week days skin been cracked,[1]; [7],(75.7)*** %
same,POEM: Proportion of patients reporting ‘no days’ or ‘1-2 days’: Last week days skin been flaking off,[1]; [7],(65.4)*** %
same,POEM: Proportion of patients reporting ‘no days’ or ‘1-2 days’: Last week days skin been itchy,[1]; [7],(45.8)*** %
same,POEM: Proportion of patients reporting ‘no days’ or ‘1-2 days’: Last week days skin felt dry or rough,[1]; [7],(59.8)*** %
same,POEM: Proportion of patients reporting ‘no days’ or ‘1-2 days’: Last week nights sleep been disturbed,[1]; [7],(83.2)*** %
same,"SCORAD VAS sleep loss, LS mean percent change from baseline to Week 16 (±SE)","[1]; 300 mg dupilumab q2w + TCS, n = 98",−61.2 (34.38)* percent
same,"SCORAD VAS sleep loss, LS mean change from baseline to Week 16 (±SE)","[1]; 300 mg dupilumab q2w + TCS, n = 106",−3.0 (0.25)***^
same,Pruritus NRS: Proportion of patients with ≥3-point improvement at Week 16,"[1]; 300 mg dupilumab q2w + TCS, patients with baseline peak pruritus NRS ≥3",56/99 (56.6)*** %
same,Pruritus NRS: Proportion of patients with ≥4-point improvement at Week 16,"[1]; 300 mg dupilumab q2w + TCS, patients with baseline peak pruritus NRS ≥4",43/94 (45.7)*** %
same,deaths during the study,[1]; all treatment groups,No deaths
same,skin infections vs placebo,[1]; combined dupilumab-treated groups,fewer skin infections
same,% change in EASI score from baseline to week 16,[1]; dupilumab 300 mg q2w + TCS,−79.8%
same,Mean weekly dose of TCS use during the treatment period,[1]; dupilumab 300 mg q2w + TCS,15.0
same,% change from baseline in SCORAD,[1]; dupilumab 300 mg q2w + TCS,−58.3%
same,% change in baseline in weekly average of peak daily pruritus NRS,[1]; dupilumab 300 mg q2w + TCS,−53.9%
same,% patients with EASI-75,[1]; dupilumab 300 mg q2w + TCS,62.6%
same,% patients with IGA 0 or 1 and reduction from baseline of ≥2 points,[1]; dupilumab 300 mg q2w + TCS,40.2%
same,Change from baseline in % BSA,[1]; dupilumab 300 mg q2w + TCS,−39.2 % BSA
same,Change from baseline in DLQI,[1]; dupilumab 300 mg q2w + TCS,−9.6
same,Change from baseline in HADS,[1]; dupilumab 300 mg q2w + TCS,−6.1
same,Change from baseline in POEM,[1]; dupilumab 300 mg q2w + TCS,−11.9
same,% patients with EASI-75 for patients with prior CSA use,[1]; dupilumab 300 mg q2w + TCS,58.0%
same,% patients with reduction of weekly average peak daily pruritus NRS ≥4 from baseline,[1]; dupilumab 300 mg q2w + TCS,45.7%
same,% change in EASI score from baseline to week 16,[1]; dupilumab 300 mg qw + TCS,−78.2%
same,Mean weekly dose of TCS use during the treatment period,[1]; dupilumab 300 mg qw + TCS,17.5
same,% change from baseline in SCORAD,[1]; dupilumab 300 mg qw + TCS,−62.4%
same,% change in baseline in weekly average of peak daily pruritus NRS,[1]; dupilumab 300 mg qw + TCS,−51.7%
same,% patients with EASI-75,[1]; dupilumab 300 mg qw + TCS,59.1%
same,% patients with IGA 0 or 1 and reduction from baseline of ≥2 points,[1]; dupilumab 300 mg qw + TCS,39.1%
same,Change from baseline in % BSA,[1]; dupilumab 300 mg qw + TCS,−37.5 % BSA
same,Change from baseline in DLQI,[1]; dupilumab 300 mg qw + TCS,−8.9
same,Change from baseline in HADS,[1]; dupilumab 300 mg qw + TCS,−5.2
same,Change from baseline in POEM,[1]; dupilumab 300 mg qw + TCS,−11.4
same,% patients with EASI-75 for patients with prior CSA use,[1]; dupilumab 300 mg qw + TCS,56.5%
same,% patients with reduction of weekly average peak daily pruritus NRS ≥4 from baseline,[1]; dupilumab 300 mg qw + TCS,40.4%
same,Injection site reactions vs placebo,"[1]; dupilumab groups, higher rate in 300 mg qw than 300 mg q2w, no severe ISRs",more common
same,tolerability / safety profile,"[1]; dupilumab plus concomitant TCS, 16-week treatment period",generally well tolerated
same,incidence of conjunctivitis vs placebo,"[1]; dupilumab-treated groups, more events in 300 mg Q2W than 300 mg QW",higher incidence
same,improvement in at least one AD-associated parameter as compared to placebo,[1]; [8],significant improvement
same,less TCS used than placebo,[1]; [8],up to 50%
same,Serious adverse events,[1]; in each treatment group,2 events
same,serious AEs/100PY,[2]; dupilumab-naïve patients,11.7 serious AEs/100PY
same,treatment discontinuations due to AEs,[2]; dupilumab-naïve patients,2.6%
same,adverse events/100 patient years,[2]; dupilumab-naïve patients (n=116),432.5 AEs/100PY
same,deaths,[2]; naïve and retreated patients,no deaths
same,decrease in peak pruritus NRS score from baseline of parent study,[2]; naïve patients,64.9%
same,patients who achieved EASI-75 (from baseline of parent study),[2]; naïve patients,73.3%
same,patients with Investigator's Global Assessment score of 0 or 1,[2]; naïve patients,49.1%
same,serious AEs/100PY,[2]; retreated patients,5.4 serious AEs/100PY
same,treatment discontinuations due to AEs,[2]; retreated patients,2.8%
same,adverse events/100 patient years,[2]; retreated patients (>13 Wk gap; n=290),371.0 AEs/100PY
same,decrease in peak pruritus NRS score from baseline of parent study,[2]; retreated patients,60.6%
same,patients who achieved EASI-75 (from baseline of parent study),[2]; retreated patients,80.7%
same,patients with Investigator's Global Assessment score of 0 or 1,[2]; retreated patients,50.7%
same,mean functional concentration of dupilumab in serum,[3]; 300 mg q2w (600 mg loading dose) with TCS,80 mg/L
same,mean functional concentration of dupilumab in serum,[3]; 300 mg qw (600 mg loading dose) with TCS,185 mg/L
same,decrease in mean EASI (SD) score,[4]; Day 35,59.3% (37.6)
same,decrease in mean EASI (SD) score,[4]; Day 50,87.2% (13.4)
same,patients with at least one adverse event (AE),[4]; in vivo,3 patients
same,serious AE leading to treatment discontinuation (systemic inflammatory response syndrome),[4]; in vivo,1
same,ratio (qw:q2w) of mean functional concentrations,[5]; Week 16,2.4
same,mean functional concentration of dupilumab in serum,"[5]; dupilumab 300 q2w (600 mg loading dose), Week 16",~75 mg/L
same,mean functional concentration of dupilumab in serum,"[5]; dupilumab 300 qw (600 mg loading dose), Week 16",180 mg/L
same,share of the Week 12 Ctrough reached by Week 4,"[5]; q2w dose, 600 mg loading dose",~80%
same,share of the Week 12 Ctrough reached by Week 4,[5]; qw dose,~67%
